# Values quoted from earlier work, collected in patent US8993551B2, “Composition for the regulation of the human immune system and the prevention and treatment of diseases thereof” (priority 2002, dated 2015).
# Like-named read-outs stand apart in the source and are kept apart here.
# Key:
# [1] = test system: human breast cancer cells
# [2] = test system: LNCaP human prostate cancer cells
# [3] = test system: HT-29 human colon cancer cells
# CD4 lymphocyte count = details: AIDS patients
# [4] = of total dietary amount consumed / of intake, mammals
Structure (SMILES),inhibition of breast cancer cell growth ([1]; after 3 days) [%],inhibition of breast cancer cell growth ([1]; after 5 days) [%],increase in rate of cell death ([1]; breast cancer cells) [%],inhibition of prostate cancer cell growth [2] [%],increase in cell death ([2]; prostate cancer cells) [%],reduction in cell growth [3] [%],CD4 lymphocyte count (CD4 lymphocyte count),intestinal absorption [4]
CC[C@H](CC[C@@H](C)[C@H]1CC[C@H]2[C@@H]3CC=C4C[C@@H](O)CC[C@]4(C)[C@H]3CC[C@]12C)C(C)C [beta-sitosterol],66,80,600,24,400,55,maintain CD4 lymphocyte count,~5%
CC(C)CCC[C@@H](C)[C@H]1CC[C@H]2[C@@H]3CC=C4C[C@@H](O)CC[C@]4(C)[C@H]3CC[C@]12C [cholesterol],,,,,,,,45-54%
